According to US20210253557A1, “SUBSTITUTED TRIAZOLE DERIVATIVES AND USES THEREOF” (Bayer Pharma Aktiengesellschaft, priority 2017, published 2021):
Counter-ions that a name gives are not always drawn.

Key:
human V2 receptor = target: T1, human V2 receptor (Homo sapiens, UniProt P30518); assay: Cellular in vitro assay for determining vasopressin receptor activity (V2, CRE-luciferase); format: cell-based; conditions: CHO cell line transfected with the human V2 receptor; [Arg8]-vasopressin at EC50 concentration; read-out: IC50 hV2
T1 construct: expressed in transfected cells; host or cells: CHO K1 (ATCC) expressing firefly luciferase under a CRE-responsive promoter
Protocol: (§1) B-1. Cellular In Vitro Assay for Determining Vasopressin Receptor Activity
(§2) The identification of agonists and antagonists of the V1a and V2 vasopressin receptors from humans, rats and dogs as well as the quantification of the activity of the compounds of the invention is carried out using recombinant cell lines. These cell lines originally derive from a hamster's ovary epithelial cell (Chinese Hamster Ovary, CHO K1, ATCC: American Type Culture Collection, Manassas, Va. 20108, USA). The test cell lines constitutively express the human, rat or dog V1a or V2 receptors. In case of the Gαq-coupled V1a receptors, cells are also stably transfected with a modified form of the calcium-sensitive photoproteins aequorin (human and rat V1a) or obelin (dog V1a), which, after reconstitution with the cofactor coelenterazine, emit light when there are increases in free calcium concentrations [Rizzuto R, Simpson A W, Brini M, Pozzan T, Nature 358, 325-327 (1992); Illarionov B A, Bondar V S, Illarionova V A, Vysotski E S, Gene 153 (2), 273-274 (1995)]. The resulting vasopressin receptor cells react to stimulation of the recombinantly expressed V1a receptors by intracellular release of calcium ions, which can be quantified by the resulting photoprotein luminescence. The Gs-coupled V2 receptors are stably transfected into cell lines expressing the gene for firefly luciferase under control of a CRE-responsible promoter. Activation of V2 receptors induces the activation of the CRE-responsive promoter via cAMP increase, thereby inducing the expression of firefly luciferase. The light emitted by photoproteins of V1a cell lines as well as the light emitted by firefly luciferase of V2 cell lines corresponds to the activation or inhibition of the respective vasopressin receptor. The bioluminescence of the cell lines is detected using a suitable luminometer [Milligan G, Marshall F, Rees S, Trends in Pharmacological Sciences 17, 235-237 (1996)].
Vasopressin V2 receptor cell lines:
On the day before the assay, the cells are plated out in culture medium (DMEM/F12, 2% FCS, 2 mM glutamine, 10 mM HEPES) in 384-well microtiter plates and kept in a cell incubator (96% humidity, 5% v/v CO2, 37° C.). On the day of the assay, test compounds in various concentrations and the agonist [Arg^8]-vasopressin at EC50 concentration are added together to the wells, and plates are incubated for 3 hours in a cell incubator. Upon addition of the cell lysis reagent Triton™ and the substrate luciferin, luminescence of firefly luciferase is measured in a luminometer.
(§3) Table 1A below lists individual IC50 values for the compounds of the invention (including racemic mixtures as well as separated enantiomers) that were obtained from cell lines transfected with the human V1a or V2 receptor: […]

human V1a receptor = target: T2, human V1a receptor (Homo sapiens, UniProt P37288); assay: Cellular in vitro assay for determining vasopressin receptor activity (V1a, aequorin luminescence); format: cell-based; conditions: for IC50: CHO cell line transfected with the human V1a receptor, [Arg8]-vasopressin at EC50 concentration, read-out: IC50 hV1a; for ratio IC50 hV2/hV1a: selectivity ratio of IC50 hV2 to IC50 hV1a
T2 construct: expressed in transfected cells; host or cells: CHO K1 (ATCC), also stably transfected with a modified aequorin
Protocol: as §1, §2
Vasopressin V1a receptor cell lines:
On the day before the assay, the cells are plated out in culture medium (DMEM/F12, 2% FCS, 2 mM glutamine, 10 mM HEPES, 5 μg/ml coelenterazine) in 384-well microtiter plates and kept in a cell incubator (96% humidity, 5% v/v CO2, 37° C.). On the day of the assay, test compounds in various concentrations are placed for 10 minutes in the wells of the microtiter plate before the agonist [Arg^8]-vasopressin at EC50 concentration is added. The resulting light signal is measured immediately in a luminometer.
as §3

T1 sequence (P30518 whole entry): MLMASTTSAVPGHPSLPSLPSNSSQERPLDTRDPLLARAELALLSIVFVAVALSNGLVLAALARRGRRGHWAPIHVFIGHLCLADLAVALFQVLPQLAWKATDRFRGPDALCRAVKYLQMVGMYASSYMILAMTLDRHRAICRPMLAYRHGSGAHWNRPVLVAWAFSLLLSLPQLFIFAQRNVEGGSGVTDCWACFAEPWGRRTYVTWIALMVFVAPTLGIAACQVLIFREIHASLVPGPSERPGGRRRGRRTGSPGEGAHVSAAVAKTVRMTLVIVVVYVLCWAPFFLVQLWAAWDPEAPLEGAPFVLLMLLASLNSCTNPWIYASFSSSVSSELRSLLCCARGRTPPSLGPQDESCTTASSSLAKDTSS
T2 sequence (P37288 whole entry): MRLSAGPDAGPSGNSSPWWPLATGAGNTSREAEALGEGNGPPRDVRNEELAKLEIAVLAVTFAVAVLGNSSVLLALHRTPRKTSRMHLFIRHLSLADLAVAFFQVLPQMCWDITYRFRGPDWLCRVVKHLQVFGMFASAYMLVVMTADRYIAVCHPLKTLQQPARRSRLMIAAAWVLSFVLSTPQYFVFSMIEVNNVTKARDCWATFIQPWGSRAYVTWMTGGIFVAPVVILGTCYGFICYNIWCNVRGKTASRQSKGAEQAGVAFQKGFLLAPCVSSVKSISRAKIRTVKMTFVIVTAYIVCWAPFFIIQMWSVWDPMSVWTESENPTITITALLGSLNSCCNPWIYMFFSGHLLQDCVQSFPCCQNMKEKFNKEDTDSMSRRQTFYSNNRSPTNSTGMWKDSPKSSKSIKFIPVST

SMILES | IC50 (human V2 receptor) | IC50 (human V1a receptor) | ratio IC50 hV2/hV1a (human V1a receptor)
COC(=O)N[C@@H](C)c1nc(Cn2nc(-c3ccc(Cl)cc3)n(C[C@H](O)C(F)(F)F)c2=O)nn1-c1cccc(Cl)c1 [Example 58, Methyl {(1S)-1-[1-(3-chlorophenyl)-3-({3-(4-chlorophenyl)-5-oxo-4-[(2S)-3,3,3-trifluoro-2-hydroxypropyl]-4,5-dihydro-1H-1,2,4-triazol-1-yl}methyl)-1H-1,2,4-triazol-5-yl]ethyl}Carbamate] | 1.95 nM | 21.4 nM | 0.1
CN1C(=O)CCC1c1nc(Cn2nc(-c3ccc(Cl)cc3)n(C[C@H](O)C(F)(F)F)c2=O)nn1-c1ncccc1Cl (mixture of isomers) [Example 103, 5-(4-Chlorophenyl)-2-({1-(3-chloropyridin-2-yl)-5-[(2R)-1-methyl-5-oxopyrrolidin-2-yl]-1H-1,2,4-triazol-3-yl}methyl)-4-[(2S)-3,3,3-trifluoro-2-hydroxypropyl]-2,4-dihydro-3H-1,2,4-triazol-3-one] | 26.5 nM | 1.45 nM | 18.3
CN1C(=O)CCC1c1nc(Cn2nc(-c3ccc(Cl)cc3)n(C[C@H](O)C(F)(F)F)c2=O)nn1-c1ccccc1Cl (single isomer, unassigned) [Example 71] | 13.8 nM | 0.7 nM | 19.7
CC(C)(C)OCC(NC(=O)C(F)(F)F)c1nc(Cn2nc(-c3ccc(Cl)cc3)n(C[C@H](O)C(F)(F)F)c2=O)nn1-c1ccccc1Cl (mixture of isomers) [Example 94, N-{2-tert-Butoxy-1-[1-(2-chlorophenyl)-3-({3-(4-chlorophenyl)-5-oxo-4-[(2S)-3,3,3-trifluoro-2-hydroxypropyl]-4,5-dihydro-1H-1,2,4-triazol-1-yl}methyl)-1H-1,2,4-triazol-5-yl]ethyl}-2,2,2-trifluoroacetamide] | 27.5 nM | 1.1 nM | 25.0
O=C(NCC(F)(F)F)OCc1nc(Cn2nc(-c3ccc(Cl)cc3)n(C[C@H](O)C(F)(F)F)c2=O)nn1-c1cccc(F)c1 [Example 45, [3-({3-(4-Chlorophenyl)-5-oxo-4-[(2S)-3,3,3-trifluoro-2-hydroxypropyl]-4,5-dihydro-1H-1,2,4-triazol-1-yl}methyl)-1-(3-fluorophenyl)-1H-1,2,4-triazol-5-yl]methyl (2,2,2-trifluoroethyl)-carbamate] | 5.13 nM | 11.2 nM | 0.5
CC(C)(C)OCC(NS(C)(=O)=O)c1nc(Cn2nc(-c3ccc(Cl)cc3)n(C[C@H](O)C(F)(F)F)c2=O)nn1-c1ccccc1Cl (single isomer, unassigned) [Example 83] | 80.5 nM | 1.95 nM | 41.3
C[C@@H](OC(N)=O)c1nc(Cn2nc(-c3ccc(Cl)cc3)n(C[C@H](O)C(F)(F)F)c2=O)nn1-c1c(F)cccc1Cl [Example 3, (1R)-1-[1-(2-Chloro-6-fluorophenyl)-3-({3-(4-chlorophenyl)-5-oxo-4-[(2S)-3,3,3-trifluoro-2-hydroxypropyl]-4,5-dihydro-1H-1,2,4-triazol-1-yl}methyl)-1H-1,2,4-triazol-5-yl]ethyl Carbamate] | 6.85 nM | 1.35 nM | 5.1
CC(N)c1nc(Cn2nc(-c3ccc(Cl)cc3)n(C[C@H](O)C(F)(F)F)c2=O)nn1-c1ccccc1Cl (mixture of isomers) [Example 60, 2-({5-[1-Aminoethyl]-1-(2-chlorophenyl)-1H-1,2,4-triazol-3-yl}methyl)-5-(4-chlorophenyl)-4-[(2S)-3,3,3-trifluoro-2-hydroxypropyl]-2,4-dihydro-3H-1,2,4-triazol-3-one trifluoroacetate] | 3.17 nM | 0.74 nM | 4.3
CNc1ccncc1-n1nc(Cn2nc(-c3ccc(Cl)cc3)n(C[C@H](O)C(F)(F)F)c2=O)nc1C(C)N (mixture of isomers) [Example 124, 2-({5-[1-Aminoethyl]-1-[4-(methylamino)pyridin-3-yl]-1H-1,2,4-triazol-3-yl}methyl)-5-(4-chlorophenyl)-4-[(2S)-3,3,3-trifluoro-2-hydroxypropyl]-2,4-dihydro-3H-1,2,4-triazol-3-one hydrochloride] | 74.5 nM | 34 nM | 2.2
C[C@H](OC(N)=O)c1nc(Cn2nc(-c3ccc(Cl)cc3)n(C[C@H](O)C(F)(F)F)c2=O)nn1-c1cccc(F)c1 [Example 30, (1S)-1-[3-({3-(4-Chlorophenyl)-5-oxo-4-[(2S)-3,3,3-trifluoro-2-hydroxypropyl]-4,5-dihydro-1H-1,2,4-triazol-1-yl}methyl)-1-(3-fluorophenyl)-1H-1,2,4-triazol-5-yl]ethyl Carbamate] | 3.81 nM | 36.6 nM | 0.1
NC(=O)OCc1nc(Cn2nc(-c3ccc(Cl)cc3)n(C[C@H](OC(N)=O)C(F)(F)F)c2=O)nn1-c1ccccc1Cl [Example 29, (2S)-3-[1-({5-[(Carbamoyloxy)methyl]-1-(2-chlorophenyl)-1H-1,2,4-triazol-3-yl}methyl)-3-(4-chlorophenyl)-5-oxo-1,5-dihydro-4H-1,2,4-triazol-4-yl]-1,1,1-trifluoropropan-2-yl Carbamate] | 2.93 nM | 1.29 nM | 2.3
CC(NS(C)(=O)=O)c1nc(Cn2nc(-c3ccc(Cl)cc3)n(C[C@H](O)C(F)(F)F)c2=O)nn1-c1ccccc1Cl (single isomer, unassigned) [Example 69] | 8.65 nM | 0.7 nM | 12.4

Results, then the compound that gave them:

IC50 (human V2 receptor) | IC50 (human V1a receptor) | ratio IC50 hV2/hV1a (human V1a receptor) | SMILES
470 nM | 21.5 nM | 21.9 | O=C1NC(c2nc(Cn3nc(-c4ccc(Cl)cc4)n(C[C@H](O)C(F)(F)F)c3=O)nn2-c2ncccc2OC(F)(F)F)CO1 (mixture of isomers) [Example 117, 5-(4-Chlorophenyl)-2-({5-[2-oxo-1,3-oxazolidin-4-yl]-1-[3-(trifluoromethoxy)pyridin-2-yl]-1H-1,2,4-triazol-3-yl}methyl)-4-[(2S)-3,3,3-trifluoro-2-hydroxypropyl]-2,4-dihydro-3H-1,2,4-triazol-3-one]
14 nM | 2.15 nM | 6.5 | NC(=O)OCc1nc(Cn2nc(-c3ccc(Cl)cc3)n(C[C@H](O)C(F)(F)F)c2=O)nn1-c1ccccc1C(F)(F)F [Example 52, {3-({3-(4-Chlorophenyl)-5-oxo-4-[(2S)-3,3,3-trifluoro-2-hydroxypropyl]-4,5-dihydro-1H-1,2,4-triazol-1-yl}methyl)-1-[2-(trifluoromethyl)phenyl]-1H-1,2,4-triazol-5-yl}methyl Carbamate]
35.5 nM | 1.02 nM | 34.8 | C[C@@H](OC(N)=O)c1nc(Cn2nc(-c3ccc(Cl)cc3)n(C[C@H](O)C(F)(F)F)c2=O)nn1-c1ncccc1Cl [Example 15, (1R)-1-[3-({3-(4-Chlorophenyl)-5-oxo-4-[(2S)-3,3,3-trifluoro-2-hydroxypropyl]-4,5-dihydro-1H-1,2,4-triazol-1-yl}methyl)-1-(3-chloropyridin-2-yl)-1H-1,2,4-triazol-5-yl]ethyl Carbamate]
2780 nM | 147 nM | 18.8 | CC(=O)NC(CO)c1nc(Cn2nc(-c3ccc(Cl)cc3)n(C[C@H](O)C(F)(F)F)c2=O)nn1-c1ncccc1OC(F)(F)F (single isomer, unassigned) [Example 121]
4900 nM | 12.5 nM | 392.0 | CC(=O)NC(COC(C)(C)C)c1nc(Cn2nc(-c3ccc(Cl)cc3)n(C[C@H](O)C(F)(F)F)c2=O)nn1-c1ccccc1Cl (single isomer, unassigned) [Example 90]
